From patent US10501518B2 (priority 2013, dated 2019)
pEC50: −log10 of the molar value.

Tests used:
WT human PTHR-1 = target: T1, WT human PTHR-1 (Homo sapiens, UniProt Q03431); experiment: cAMP GloSensor dose-response in GP-2.3 cells expressing human PTHR-1; type: cell-based; conditions: for cAMP (hPTHR-1) Max: luminescence counts per second relative to PTH(1-34); for cAMP (hPTHR-1) Max / Max: 12-16 minutes after ligand addition; for Max: Table 6, mean ± SEM; for agonist activity at hPTHR-1 (cAMP response), in words: maximum cAMP response compared with PTH(1-34)
T1 construct: bioactivity of the resulting compound in full-length hPTHR-1 and a truncated version; expressed in transfected cells
T1 sequence (Q03431 27-593): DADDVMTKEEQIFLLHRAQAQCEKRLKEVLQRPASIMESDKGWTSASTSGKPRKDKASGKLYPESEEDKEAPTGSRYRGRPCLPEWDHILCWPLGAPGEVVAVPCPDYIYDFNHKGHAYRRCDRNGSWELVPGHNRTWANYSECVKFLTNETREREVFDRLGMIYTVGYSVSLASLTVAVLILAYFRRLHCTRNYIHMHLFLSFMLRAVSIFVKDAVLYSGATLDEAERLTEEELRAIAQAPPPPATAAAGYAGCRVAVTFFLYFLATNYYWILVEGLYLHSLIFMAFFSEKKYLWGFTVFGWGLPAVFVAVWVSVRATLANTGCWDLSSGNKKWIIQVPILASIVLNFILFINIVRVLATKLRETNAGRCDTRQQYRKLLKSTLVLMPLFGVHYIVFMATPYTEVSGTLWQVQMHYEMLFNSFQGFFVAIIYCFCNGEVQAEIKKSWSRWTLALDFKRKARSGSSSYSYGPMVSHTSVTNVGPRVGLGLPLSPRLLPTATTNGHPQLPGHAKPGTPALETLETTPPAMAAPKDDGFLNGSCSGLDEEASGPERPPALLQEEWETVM
Protocol: FIGS. 8A, 8B, and 8C constitute a series of graphs depicting cAMP responses in GP-2.3 cells expressing wild-type human parathyroid hormone receptor 1 (PTHR-1-WT). […] Data are means (±SEM) of n>4 experiments, each performed in duplicate.
(§1) For cAMP dose-response assays, monolayers of confluent HEK 293 cells were pre-incubated with buffer containing d-luciferin (0.5 mM) in 96 well plates at room temperature until a stable baseline level of luminescence was established (30 min). Varying concentrations of agonist were then added, and the time course of luminescence response was recorded using a Perkin Elmer plate reader following α/β-peptide addition.

WT rat PTHR-1 = target: T2, WT rat PTHR-1 (Rattus norvegicus, UniProt P25961); experiment: cAMP GloSensor dose-response in GR-35 cells expressing rat PTHR-1; type: cell-based; conditions: Table 7; GR-35 cells, 12-16 minutes after ligand addition; mean ± SEM
T2 construct: expressed in transfected cells
T2 sequence (P25961 27-591): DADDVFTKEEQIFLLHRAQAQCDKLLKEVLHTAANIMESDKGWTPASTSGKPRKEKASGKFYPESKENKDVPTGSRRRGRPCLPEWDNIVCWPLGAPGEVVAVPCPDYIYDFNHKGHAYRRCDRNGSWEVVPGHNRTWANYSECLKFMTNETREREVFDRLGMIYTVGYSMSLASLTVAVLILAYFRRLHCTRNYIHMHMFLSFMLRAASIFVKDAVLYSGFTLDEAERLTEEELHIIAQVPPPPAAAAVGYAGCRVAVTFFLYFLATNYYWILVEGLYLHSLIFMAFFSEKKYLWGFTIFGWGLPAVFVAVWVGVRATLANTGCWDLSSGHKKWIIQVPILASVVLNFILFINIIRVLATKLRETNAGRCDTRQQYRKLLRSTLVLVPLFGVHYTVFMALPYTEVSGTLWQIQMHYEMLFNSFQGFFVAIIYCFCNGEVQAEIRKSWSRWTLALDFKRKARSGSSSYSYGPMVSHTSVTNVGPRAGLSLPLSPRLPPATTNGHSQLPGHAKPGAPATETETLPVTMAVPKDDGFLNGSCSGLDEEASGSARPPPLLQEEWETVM
Protocol: FIGS. 9A, 9B, and 9C constitute a series of graphs depicting cAMP responses in GR-35 cells expressing rat PTHR-1-WT. […] Data are means (±SEM) of n>4 experiments, each performed in duplicate.
as §1

R^0 form of human PTHR-1 = target: T3, R^0 form of human PTHR-1 (Homo sapiens, UniProt Q03431); experiment: Radio-ligand competition binding to R^0 form of human PTHR-1 (COS-7 membranes, 125I-PTH(1-34) tracer, GTPγS)
T3 construct: expressed in transfected cells; host or cells: COS-7
T3 sequence (Q03431 27-593): T1 sequence (Q03431 27-593)
Description: Data are means (±SEM) of n≥4 experiments, each performed in duplicate.

PTH2R/PTH1R = experiment: cAMP response selectivity between PTH2R and PTH1R; type: cell-based; conditions: most selective
Description: Selected analogs containing beta-amino acid substitutions selectively signal through one or the other of the two receptors. Without being bound to any underling biological phenomenon or mechanism, PTHR-2 likely serves an alternative function to PTHR-1 as it is highly expressed in the central nervous system. In contrast, PTHR-1 is highly expressed in bone and kidney, but not in the CNS. The analogs disclosed herein are thus useful as therapeutic compounds that a specific agonists or antagonists of PTHR-1 and PTHR-2.

cAMP (hPTHR-1) Max (WT human PTHR-1; Table 1) | agonist activity at hPTHR-1 (cAMP response), in words (WT human PTHR-1) | affinity for the R^0 state of hPTHR-1, in words (R^0 form of human PTHR-1; compared with PTH(1-34)) | pEC50 (WT human PTHR-1; Table 1, GP-2.3 cells, read-out: cAMP (hPTHR-1) EC50) | IC50 (R^0 form of human PTHR-1; Table 1, COS-7 membranes, 125I-PTH(1-34) tracer, GTPγS, read-out: R^0 IC50, nM, Binding (hPTHR-1)) [nM] | Compound | Max (WT human PTHR-1; GP-2.3 cells) | Max (WT rat PTHR-1) | cAMP response PTH2R/PTH1R (PTH2R/PTH1R; Table 16) | cAMP response PTH1R/PTH2R (PTH2R/PTH1R; Table 17)
1.04 | full agonists of hPTHR-1 | matches PTH(1-34) | – | – | CC[C@H](C)[C@H](NC(=O)[C@H](CCC(=O)O)NC(=O)[C@H](CO)NC(=O)[C@@H](NC(=O)[C@@H](N)CO)C(C)C)C(=O)N[C@@H](CCC(N)=O)C(=O)N[C@@H](CC(C)C)C(=O)N[C@@H](CCSC)C(=O)N[C@@H](Cc1c[nH]cn1)C(=O)N[C@@H](CC(N)=O)C(=O)N[C@@H](CC(C)C)C(=O)NCC(=O)N[C@@H](CCCCN)C(=O)N[C@@H](Cc1c[nH]cn1)C(=O)N[C@@H](CC(C)C)C(=O)N[C@@H](CC(N)=O)C(=O)N[C@@H](CO)C(=O)N[C@@H](CCSC)C(=O)N[C@@H](CCC(=O)O)C(=O)N[C@@H](CCCNC(=N)N)C(=O)N[C@H](C(=O)N[C@@H](CCC(=O)O)C(=O)N[C@@H](Cc1c[nH]c2ccccc12)C(=O)N[C@@H](CC(C)C)C(=O)N[C@@H](CCCNC(=N)N)C(=O)N[C@@H](CCCCN)CC(=O)N[C@@H](CCCCN)C(=O)N[C@@H](CC(C)C)C(=O)N[C@@H](CCC(N)=O)C(=O)N[C@@H](CC(=O)O)CC(=O)N[C@H](C(=O)N[C@@H](Cc1c[nH]cn1)C(=O)N[C@@H](CC(N)=O)C(=O)N[C@H](CC(N)=O)Cc1ccccc1)C(C)C)C(C)C [D3] | 226 ± 15 luminescence counts per second × 10^−3 | 65 ± 62 luminescence counts per second × 10−3 | – | –
– | – | – | – | – | hTIP(1-39): comparator peptide in the PTH2R/PTH1R cAMP response tables (SLALADDAAFRERARLLAALERRHWLNSYMHKLLVLDAP) | – | – | 165 | 0.01
1.08 | full agonists of hPTHR-1 | – | 9.96 | 80 | CC[C@H](C)[C@H](NC(=O)[C@H](CCC(=O)O)NC(=O)[C@H](CO)NC(=O)[C@@H](NC(=O)[C@@H](N)CO)C(C)C)C(=O)N[C@@H](CCC(N)=O)C(=O)N[C@@H](CC(C)C)C(=O)N[C@@H](CCSC)C(=O)N[C@@H](Cc1c[nH]cn1)C(=O)N[C@@H](CC(N)=O)C(=O)N[C@@H](CC(C)C)C(=O)NCC(=O)N[C@@H](CCCCN)C(=O)N[C@@H](Cc1c[nH]cn1)C(=O)N[C@@H](CC(C)C)C(=O)N[C@@H](CC(N)=O)C(=O)N[C@@H](CO)C(=O)N[C@@H](CCSC)C(=O)N[C@@H](CCC(=O)O)C(=O)N[C@@H](CCCNC(=N)N)C(=O)N[C@H](C(=O)N[C@@H](CCC(=O)O)C(=O)N[C@@H](Cc1c[nH]c2ccccc12)C(=O)N[C@H](CC(=O)N[C@@H](CCCNC(=N)N)C(=O)N[C@@H](CCCCN)C(=O)N[C@@H](CCCCN)C(=O)N[C@H](CC(=O)N[C@@H](CCC(N)=O)C(=O)N[C@@H](CC(=O)O)C(=O)N[C@H](C(=O)N[C@@H](CCC(N)=O)CC(=O)N[C@@H](CC(N)=O)C(=O)N[C@@H](Cc1ccccc1)C(N)=O)C(C)C)CC(C)C)CC(C)C)C(C)C [B3] | 234 ± 16 luminescence counts per second × 10^−3 | 69 ± 78 luminescence counts per second × 10−3 | – | –
